Test results from patent US9925205B2, “Compositions of multicationic drugs for reducing interactions with polyanionic biomolecules and methods of use thereof” (Insmed Incorporated, priority 2007, dated 2018).
Where “and” joins values, the source holds several entries; their conditions need not be identical. Equal entries are not always repeated. Structures can show the parent of a compound that is named as a salt.

Assays:
[1] = Effect of mono- and multi-protonic acid salts on binding of amikacin to alginate
Description: Various salts were tested for their ability to compete with alginate. Amikacin sulfate (0.1 mL of 1 mg/ml) was added to 0.4 mL solution of 1% Na Alginate and 0.5 mL solution of 200 mM Na salt of an Acid at pH 6.0. Samples were incubated 10 minutes at 37° C. and centrifuged in Centricon-10 for 30 minutes at 4000 rpm. Filtrate was diluted 2 fold with TDX buffer and analyzed for AMK.

[2] = Amikacin-citrate binding determined indirectly from competitive binding with alginate (Centricon filter); set-up: AMKAlg (AMKtot—AMKperm) / AMKfree / AMKcitrate: unit not given here
Description: The binding of a multicationic drug, such as amikacin, to alginate in presence salts of various (one-, two- and three-protonic) acids was tested. To study the effect of binding of amikacin to alginate, amikacin sulfate, Na citrate and Na alginate were mixed at different proportions and then free (unbound) amikacin was separated on a Cetricon-10 filtering device (MWCO 10 kD). In the absence of citrate, amikacin binds to alginate only, and the amikacin-alginate binding coefficient can be calculated from equation: […]
In the presence of citrate, amikacin can bind to both alginate and citrate. The amikacin-citrate complex is not large enough to be retained by Centricon filter and will be measured as “free” amikacin, which is actually a sum of free and citrate bound amikacin. For that reason amikacin-citrate binding can not be measured directly. It can, however, be determined indirectly from competitive binding, knowing amikacin-alginate binding coefficient PAlg.
Amikacin-citrate binding coefficient was Pcit=0.076 mM^−1. Thus in the presence of 1/Pcit˜13 mM citrate the concentration of amikacin bound to citrate is approximately equal to the concentration of free amikacin. As one can see from the above data, citrate can compete for amikacin with alginate thus reducing amount of amikacin bound to alginate. 1% Alginate can reduce AMK free concentration ˜7-fold. Citrate at 40 mM reduces this effect increasing unbound AMK ˜2.5 fold.

[3] = Binding of amikacin to alginate in saline, free amikacin separated on Centricon-10 filter; settings: for AMKAlg (bound amikacin, AMKt-AMKf) / AMKAlg/AMKf / AMKfree: saline, no citrate; for AMKfree: total amikacin 92.5 ug/mL
Description: The binding of a multicationic drug, such as amikacin, to alginate in presence salts of various (one-, two- and three-protonic) acids was tested. To study the effect of binding of amikacin to alginate, amikacin sulfate, Na citrate and Na alginate were mixed at different proportions and then free (unbound) amikacin was separated on a Cetricon-10 filtering device (MWCO 10 kD). In the absence of citrate, amikacin binds to alginate only, and the amikacin-alginate binding coefficient can be calculated from equation:
[formula] where bound amikacin can be found by subtracting free from total, and alginate free concentration is assumed to be equal to the total concentration due to excess of alginate over amikacin.
As alginate concentration increases, amikacin free measured in permeate decreases (Table 1). According to Equation 1 the ratio AMKAlg/AMKf should be proportional to the concentration of alginate, and the slope of this dependence should equal to the binding coefficient.
If one use a linear regression, the slope obtained gives us an estimate of the amikacin-alginate binding coefficient of PAlg=0.76 (mg/mL)^−1. This means that in presence of 1/PAlg˜1.3 mg/mL alginate approximately half of all amikacin will be bound to alginate.

[4] = Effect of pH on ability of citrate to compete with alginate for amikacin (Centricon-10, TDX); type: binding
P. Aeruginosa PAC1 = assay: In-vitro bioactivity of amikacin, modified disk Kirby-Bauer agar diffusion method; type: cell-based; settings: for Zone size (mm): three values
Description: It has been shown elsewhere […] that amikacin-alginate binding can in fact reduce amikacin bioactivity against PA. One may ask whether binding to citrate will preserve bioactivity or inhibit it similar to alginate. In order to address this, activity of amikacin against P. Aeruginosa PAC1 using modified disk Kirby-Bauer agar diffusion method was tested. […] Absence of supplements was used as a control.
Activity was determined using modified disk Kirby-Bauer agar diffusion method and PAC1 PA strain.

[5] = Effect of pH on ability of citrate to compete with alginate for amikacin (Centricon-10, TDX); type: binding; remark: listed apart in the source
Description: How pH affects the ability of citrate to compete with alginate for amikacin was also tested. Here 0.5 mL sodium alginate (2%) was mixed with 0.4 mL sodium citrate (200 mM) and 0.1 mL amikacin sulfate (1 mg/mL), giving corresponding final concentrations of 1%, 80 mM, and 100 ug/mL, respectively. Two controls using either alginate or citrate alone were employed. Samples were incubated for 10 minutes at 37° C. and unbound amikacin was separated by centrifuging in Centrico-10 device for 30 minutes at 4000 rpm. Amikacin in permeate was measured by TDX (Abbott) and presented as % of total (Table 3).

[6] = 0.1 mL 1 mg/ml amikacin sulfate + 0.4 mL 1% Na Alginate + 0.5 mL 200 mM Na salt of the acid, pH 6.0, 10 minutes at 37° C.
[7] = alginate 6 mg/mL, citrate 60 mM
[8] = alginate 10 mg/mL, citrate 40 mM
[9] = alginate 14 mg/mL, citrate 20 mM
[10] = alginate 16 mg/mL, citrate 10 mM
[11] = Alginate 1%, 80 mM Citrate at pH 6-7

## O=C([O-])/C=C\C(=O)[O-].[Na+].[Na+] [Sodium maleate]
[1]; [6]
  Amikacin not bound to alginate (%): 39.4%
[1]; 0.1 mL 1 mg/ml amikacin sulfate + 0.4 mL 1% Na Alginate + 0.5 mL 200 mM Na salt of the acid, pH 6.0, 10 minutes at 37° C., listed as maleate
  Amikacin not bound to alginate (%): ~40%

## O=C([O-])CCC(=O)[O-].[Na+].[Na+] [Sodium succinate]
[1]; [6]
  Amikacin not bound to alginate (%): 40.2%
[1]; 0.1 mL 1 mg/ml amikacin sulfate + 0.4 mL 1% Na Alginate + 0.5 mL 200 mM Na salt of the acid, pH 6.0, 10 minutes at 37° C., listed as succinate
  Amikacin not bound to alginate (%): ~40%

## CC(=O)[O-].[Na+] [Sodium acetate]
[1]; [6]
  Amikacin not bound to alginate (%): 11.2%
[1]; as Table 4
  effect of the salt on unbound amikacin (in words): not showing any increase in unbound amikacin

## O=C([O-])CCCC(=O)[O-].[Na+].[Na+] [Sodium glutarate]
[1]; [6]
  Amikacin not bound to alginate (%): 36.7%
[1]; 0.1 mL 1 mg/ml amikacin sulfate + 0.4 mL 1% Na Alginate + 0.5 mL 200 mM Na salt of the acid, pH 6.0, 10 minutes at 37° C., listed as glutarate
  Amikacin not bound to alginate (%): ~40%

## NCC[C@H](O)C(=O)N[C@@H]1C[C@H](N)[C@@H](O[C@H]2O[C@H](CN)[C@@H](O)[C@H](O)[C@H]2O)[C@H](O)[C@H]1O[C@H]1O[C@H](CO)[C@@H](O)[C@H](N)[C@H]1O [amikacin]
[2]
  1/Pcit, citrate concentration at which amikacin bound to citrate approximately equals free amikacin: ~13 mM
[2]; Citrate at 40 mM, 1% Alginate
  increase of unbound AMK by citrate: ~2.5 fold
[2]; alginate 0 mg/mL, citrate 0 mM
  AMKAlg (AMKtot—AMKperm): 0
  AMKcit/AMKf: 0
  AMKcitrate: 0
  AMKfree: 92.5
  AMKperm: 92.5 µg/mL
[2]; [7]
  AMKAlg (AMKtot—AMKperm): 40.9
  AMKcit/AMKf: 4.72
  AMKcitrate: 42.59
  AMKfree: 9.01
  AMKperm: 51.6 µg/mL
[2]; [8]
  AMKAlg (AMKtot—AMKperm): 60.5
  AMKcit/AMKf: 3.00
  AMKcitrate: 24.00
  AMKfree: 8.00
  AMKperm: 32.0 µg/mL
[2]; [9]
  AMKAlg (AMKtot—AMKperm): 77
  AMKcit/AMKf: 1.13
  AMKcitrate: 8.23
  AMKfree: 7.27
  AMKperm: 15.5 µg/mL
[2]; [10]
  AMKAlg (AMKtot—AMKperm): 82.4
  AMKcit/AMKf: 0.48
  AMKcitrate: 3.29
  AMKfree: 6.81
  AMKperm: 10.1 µg/mL
[2]; slope of AMKcit/AMKf vs citrate concentration
  Pcit AMK-Citrate binding coefficient: 0.076 mM⁻¹
[1]; Control (no acid salt named)
  Amikacin not bound to alginate (%): 17.7%
[3]
  1/PAlg, alginate concentration at which approximately half of all amikacin is bound to alginate: ~1.3 mg/mL
[3]; 1% Alginate
  reduction of AMK free concentration by alginate: ~7 fold
[3]; alginate 0 mg/mL
  AMKAlg (bound amikacin, AMKt-AMKf): 0 µg/mL
  AMKAlg/AMKf: 0
  AMKfree: 92.5 µg/mL
[3]; alginate 6 mg/mL
  AMKAlg (bound amikacin, AMKt-AMKf): 72.5 µg/mL
  AMKAlg/AMKf: 3.63
  AMKfree: 20 µg/mL
[3]; alginate 10 mg/mL
  AMKAlg (bound amikacin, AMKt-AMKf): 79.9 µg/mL
  AMKAlg/AMKf: 6.34
  AMKfree: 12.6 µg/mL
[3]; alginate 14 mg/mL
  AMKAlg (bound amikacin, AMKt-AMKf): 84.5 µg/mL
  AMKAlg/AMKf: 10.56
  AMKfree: 8 µg/mL
[3]; alginate 16 mg/mL
  AMKAlg (bound amikacin, AMKt-AMKf): 86 µg/mL
  AMKAlg/AMKf: 13.23
  AMKfree: 6.5 µg/mL
[3]; slope of AMKAlg/AMKf vs alginate concentration, linear regression
  PAlg AMK-Alginate binding coefficient: 0.76 (mg/ml)^−1
[4]; Alg, no Citrate, AMK 0.5 mg/mL
  Amikacin not bound to alginate (%): 14.5%
[4]; no citrate, total amikacin 0.5 mg/mL
  Alginate binding efficiency: 85.5%
P. Aeruginosa PAC1; Alginate 1%
  Zone size (mm): 21 mm
P. Aeruginosa PAC1; Alginate + Citrate
  Zone size (mm): 28 mm and 29 mm
P. Aeruginosa PAC1; Citrate 100 mM
  Zone size (mm): 28 mm
P. Aeruginosa PAC1; Citrate at concentration 100 mM
  effect on activity of amikacin (in words): does not affect activity
P. Aeruginosa PAC1; Control, MH medium without supplements
  Zone size (mm): 28 mm and 29 mm
P. Aeruginosa PAC1; both alginate and citrate present
  effect on activity of amikacin (in words): citrate actually restored activity of amikacin
[5]
  binding capacity of alginate: at least 0.05 mg amikacin per mg alginate
[5]; Alg + Citrate pH 5, alginate 1%, citrate 80 mM, amikacin 100 ug/mL
  Amikacin not bound to alginate (%): 56.4%
[5]; Alg + Citrate pH 6, alginate 1%, citrate 80 mM, amikacin 100 ug/mL
  Amikacin not bound to alginate (%): 70.4%
[5]; Alg + Citrate pH 7, alginate 1%, citrate 80 mM, amikacin 100 ug/mL
  Amikacin not bound to alginate (%): 68.1%
[5]; Alg, no Citrate, alginate 1%, amikacin 100 ug/mL
  Amikacin not bound to alginate (%): 11.9%
[5]; Alg, no Citrate, alginate 1%, amikacin 100 ug/mL, listed as AMK
  Amikacin not bound to alginate (%): 12%
[5]; [11]
  AMK binding to alginate: ~30%
  unbound AMK: ~70%
[5]; Alginate 1%, absence of citrate
  AMK bound by alginate: ~88%
[5]; Citrate, no Alginate
  Amikacin not bound to alginate (%): 100%

## O=C(O)CC(O)(CC(=O)O)C(=O)O [Sodium citrate]
[1]; [6]
  Amikacin not bound to alginate (%): 72.1%

## Sodium tartarate
[1]; [6]
  Amikacin not bound to alginate (%): 41.4%
[1]; 0.1 mL 1 mg/ml amikacin sulfate + 0.4 mL 1% Na Alginate + 0.5 mL 200 mM Na salt of the acid, pH 6.0, 10 minutes at 37° C., listed as taratrate
  Amikacin not bound to alginate (%): ~40%
